We go through one compound from article PMC8093860, “Anti-Hyperuricemic and Nephroprotective Effects of Dihydroberberine in Potassium Oxonate- and Hypoxanthine-Induced Hyperuricemic Mice” (Frontiers in Pharmacology, 2021).

The assay deals with T1, Xanthine oxidase (XOD) (Bos taurus, UniProt P80457).
T1 construct: gene XDH
In words: spectrophotometric XOD inhibition assay at […] nm with xanthine substrate, cow milk enzyme. In kind it is biochemical.

SMILES strings stand for the structures.

T1 sequence (P80457 2-1332): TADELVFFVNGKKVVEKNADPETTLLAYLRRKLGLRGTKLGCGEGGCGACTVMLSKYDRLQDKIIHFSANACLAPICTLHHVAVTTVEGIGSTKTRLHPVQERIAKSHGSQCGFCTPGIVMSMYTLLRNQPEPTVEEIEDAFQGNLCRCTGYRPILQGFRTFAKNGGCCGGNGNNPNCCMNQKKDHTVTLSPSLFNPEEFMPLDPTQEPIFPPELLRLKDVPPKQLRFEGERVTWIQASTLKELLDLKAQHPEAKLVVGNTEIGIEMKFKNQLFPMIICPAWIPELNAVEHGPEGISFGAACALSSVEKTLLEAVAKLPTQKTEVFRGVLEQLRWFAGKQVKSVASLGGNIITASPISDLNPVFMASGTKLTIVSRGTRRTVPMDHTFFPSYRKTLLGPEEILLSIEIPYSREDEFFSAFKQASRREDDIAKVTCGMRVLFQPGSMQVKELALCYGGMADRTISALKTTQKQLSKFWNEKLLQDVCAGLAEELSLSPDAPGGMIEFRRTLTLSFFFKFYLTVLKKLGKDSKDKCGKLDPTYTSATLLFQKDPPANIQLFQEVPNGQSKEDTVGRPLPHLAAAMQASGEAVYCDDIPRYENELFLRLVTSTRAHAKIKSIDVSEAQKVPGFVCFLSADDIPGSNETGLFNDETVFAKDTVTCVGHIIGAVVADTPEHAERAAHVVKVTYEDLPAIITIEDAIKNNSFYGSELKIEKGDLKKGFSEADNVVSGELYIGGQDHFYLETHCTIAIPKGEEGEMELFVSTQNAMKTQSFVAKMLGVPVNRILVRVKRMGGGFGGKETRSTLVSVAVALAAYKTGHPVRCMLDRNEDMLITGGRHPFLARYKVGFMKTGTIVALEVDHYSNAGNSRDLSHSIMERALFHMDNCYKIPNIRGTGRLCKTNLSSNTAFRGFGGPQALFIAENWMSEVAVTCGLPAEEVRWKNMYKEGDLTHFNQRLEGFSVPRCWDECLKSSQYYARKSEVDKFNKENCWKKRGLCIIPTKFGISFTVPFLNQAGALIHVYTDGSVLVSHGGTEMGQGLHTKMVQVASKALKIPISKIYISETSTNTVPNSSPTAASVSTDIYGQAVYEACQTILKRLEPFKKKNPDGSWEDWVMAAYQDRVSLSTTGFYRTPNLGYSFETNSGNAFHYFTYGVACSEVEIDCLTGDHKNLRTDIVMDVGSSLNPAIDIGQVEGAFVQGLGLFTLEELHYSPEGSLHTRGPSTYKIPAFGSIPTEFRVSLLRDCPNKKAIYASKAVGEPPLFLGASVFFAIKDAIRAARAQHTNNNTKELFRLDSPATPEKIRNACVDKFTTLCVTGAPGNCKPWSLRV

On to `COc1ccc2c(c1OC)CN1CCc3cc4c(cc3C1=C2)OCO4` [DHB, Dihydroberberine], for which the IC50 was found to be 34.4 ± 2.84 µM.
